The text below walks through data of patent US20220133747A1, “ESTROGEN RECEPTOR INHIBITORS AND USES THEROF” (The Regents of the University of California, priority 2018, published 2022).

Molecules are shown by their SMILES.

The target in one series is T1, ER (Homo sapiens, UniProt P03372).
T1 construct: endogenous in cells; host or cells: MCF-7 human breast cancer cells in suspension (intact cells)
T1 sequence (P03372 1-595): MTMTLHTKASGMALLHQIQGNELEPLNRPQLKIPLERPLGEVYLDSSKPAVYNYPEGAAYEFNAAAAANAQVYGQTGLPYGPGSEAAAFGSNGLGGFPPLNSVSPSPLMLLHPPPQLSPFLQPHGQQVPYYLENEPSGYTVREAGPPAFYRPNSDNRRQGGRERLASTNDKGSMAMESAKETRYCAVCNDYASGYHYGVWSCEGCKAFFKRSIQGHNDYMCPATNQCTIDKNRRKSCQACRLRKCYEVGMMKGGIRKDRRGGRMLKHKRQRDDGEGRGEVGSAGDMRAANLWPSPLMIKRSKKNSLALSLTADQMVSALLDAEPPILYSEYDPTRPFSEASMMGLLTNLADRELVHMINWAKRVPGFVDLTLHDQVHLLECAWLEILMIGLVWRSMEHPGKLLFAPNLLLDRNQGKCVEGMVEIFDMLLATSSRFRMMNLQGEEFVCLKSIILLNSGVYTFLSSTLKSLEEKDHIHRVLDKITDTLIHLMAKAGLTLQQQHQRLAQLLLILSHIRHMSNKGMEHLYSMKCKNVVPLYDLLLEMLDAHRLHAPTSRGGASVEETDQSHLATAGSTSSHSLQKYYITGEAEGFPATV
Put plainly: Specific [3H]estradiol-17β binding competition in MCF-7 breast cancer cells. The following applies: MCF-7 cells, 10 nM. Here is the method:
FIGS. 20A-20C show biologic activity of selected SERD candidates. […] ER-positive MCF-7 cells were treated in phenol-red free RPMI 1640 without FBS and containing vehicle control (CON) or 100 nM concentrations of either fulvestrant (FX) or antiestrogens 105, 109, 121, 140, 151, 160 or SERD128 in vitro. After 4 hours, cells were harvested and processed for PAGE and Western immunoblots using ERα antibody (1D5, Thermofisher Scientific). RPL13A was used as a loading control. […] Cells were dosed with either E2 alone or with SERDs combined with E2 in phenol redfree medium with 0.1% dextran-coated charcoal-treated FBS in luminometer plates. Data are presented as relative light units (RLU) relative to that of E2 alone in three replicate assays (4 wells per replicate) f SEM. Treatment with E2 alone induced a 12-fold induction of ER-dependent luciferase activity quantified as RLU relative to vehicle control-treated samples.
Specific estradiol-17β (E2) binding and competition for binding by antiestrogen SERD128 or fulvestrant was assessed in human MCF-7 breast cancer cells using methods as described before. […] Competitive ligand binding to ER-positive MCF-7 cells is detected by the ability of a test compound to displace labeled estradiol-17β from the cells in vitro.

The conditions of series [1]: clinic; cited from earlier work.

For `C[C@]12C[C@H](Oc3ccc(N)c(C(F)(F)F)c3)[C@@H]3c4ccc(O)cc4CC[C@H]3[C@@H]1CC[C@@H]2O` [SERD128, (8S,9S,11S,13S,14S,17S)-11-(4-Amino-3-(trifluoromethyl)phenoxy)-13-methyl-7,8,9,11,12,13,14,15,16,17-decahydro-6H-cyclopenta[a]phenanthrene-3,17-diol], the “competition for specific [3H]estradiol-17β (E2) binding” value on ER is reported as “comparable to that of the pure antiestrogen fulvestrant”.

Turning to `C[C@]12CC[C@@H]3c4ccc(O)cc4C[C@@H](CCCCCCCCC[S+]([O-])CCCC(F)(F)C(F)(F)F)[C@H]3[C@@H]1CC[C@@H]2O` (some centres unmarked) [fulvestrant, reference compound], in series [1], the bioavailability entry is “very low bioavailability”.
